Assay results from patent publication US11072607B2, “Inhibitors of RIP1 kinase and methods of use thereof” (priority 2016, dated 2021).
Read-outs that look alike come from different tables or passages of the source.

Target: human RIP1 kinase domain (2-375) (Homo sapiens (Human), UniProt Q13546)
Assay: RIP1 kinase inhibition assay (biochemical, Transcreener ADP assay)
Conditions: tight-binding apparent inhibition constant (Ki app, Morrison equation), 50 nM enzyme, 50 uM ATP, 2 hours incubation, fluorescence polarization
Method: Example 45: RIP1 Kinase Inhibition Assays (Biochemical Assay)
The compounds of the present invention were tested for their capacity to inhibit RIP1K activity as described below.
The ability of the receptor interacting protein kinase (RIPK1) to catalyze the hydrolysis of adenosine-5′-triphosphate (ATP) is monitored using the Transcreener ADP (adenosine-5′-diphosphate) assay (BellBrook Labs). Purified human RIP1 kinase domain (2-375) (50 nM) derived from a baculovirus-infected insect cell expression system is incubated with test compounds for 2 hours in 50 mM Hepes buffer (pH 7.5) containing 30 mM MgCl2, 1 mM dithiothreitol, 50 uM ATP, 0.002% Brij-35, and 0.5% dimethyl sulfoxide (DMSO). Reactions are quenched by the addition of 1× Bell Brooks Stop buffer B (20 mM Hepes (ph 7.5), 40 mM ethylenediaminetetraacetic acid and 0.02% Brij-35) containing an additional 12 mM EDTA and 55 ug/mL ADP2 antibody and 4 nM ADP-AlexaFluor® 633 tracer. The tracer bound to the antibody is displaced by the ADP generated during the RIP1K reaction, which causes a decrease in fluorescence polarization that is measured by laser excitation at 633 nm with a FP microplate reader M1000. Fractional activity was plotted against test article concentration. Using Genedata Screener software (Genedata; Basel, Switzerland), the data were fit to the tight-binding apparent inhibition constant (Ki^app) Morrison equation [Williams, J. W. and Morrison, J. F. (1979) The kinetics of reversible tight-binding inhibition. Methods Enzymol 63: 437-67]. The following equation was used to calculate fractional activity and Ki^app: […]
where [E]T and [I]T are the total concentrations of active enzyme and test article, respectively. […]

Chain of human RIP1 kinase domain (2-375) (Q13546 2-375): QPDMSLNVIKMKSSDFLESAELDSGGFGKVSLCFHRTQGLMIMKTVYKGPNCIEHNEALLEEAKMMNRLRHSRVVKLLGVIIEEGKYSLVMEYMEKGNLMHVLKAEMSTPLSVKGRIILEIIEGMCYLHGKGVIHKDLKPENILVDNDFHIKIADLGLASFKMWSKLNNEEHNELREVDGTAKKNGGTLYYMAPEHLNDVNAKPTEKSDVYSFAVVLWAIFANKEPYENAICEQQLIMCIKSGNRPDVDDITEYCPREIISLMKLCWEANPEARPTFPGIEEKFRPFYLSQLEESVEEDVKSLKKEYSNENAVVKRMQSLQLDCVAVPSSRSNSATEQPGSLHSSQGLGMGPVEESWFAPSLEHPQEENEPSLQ

## CN1C(=O)[C@@H](NC(=O)c2nc3n(n2)[C@H](c2ccccc2)C[C@@H]3F)CCn2nccc21 (mixture of isomers) [Example #29, Rac-(5S,7S)-7-fluoro-5-phenyl-N-[(6S)-4-methyl-5-oxo-7,8-dihydro-6H-pyrazolo[1,5-a][1,3]diazepin-6-yl]-6,7-dihydro-5H-pyrrolo[1,2-b][1,2,4]triazole-2-carboxamide]
RIP1 Ki
  Ki: 43 nM

## O=C(N[C@H]1CCc2cc(F)cc(F)c2NC1=O)c1nc2n(n1)[C@@H](c1ccccc1)C[C@@H]2F (mixture of isomers) [Example #31, Rac-(5R,7S)-7-fluoro-5-phenyl-N-[(3S)-7,9-difluoro-2-oxo-1,3,4,5-tetrahydro-1-benzazepin-3-yl]-6,7-dihydro-5H-pyrrolo[1,2-b][1,2,4]triazole-2-carboxamide]
RIP1 Ki
  Ki: 15 nM

## CN1C(=O)[C@@H](NC(=O)c2nc3n(n2)[C@@H](c2ccccc2)C[C@@H]3F)COc2ccccc21 (mixture of isomers) [Example #32, rac-(5R,7S)-7-fluoro-5-phenyl-N-[(3S)-5-methyl-4-oxo-2,3-dihydro-1,5-benzoxazepin-3-yl]-6,7-dihydro-5H-pyrrolo[1,2-b][1,2,4]triazole-2-carboxamide]
RIP1 Ki
  Ki: 14 nM

## CN1C(=O)[C@@H](NC(=O)c2nc3n(n2)[C@H](c2ccccc2)C[C@@H]3F)CCn2nccc21 (racemic) [Example #38, rac-(5S,7S)-7-fluoro-5-phenyl-N-[rac-(6S)-4-methyl-5-oxo-7,8-dihydro-6H-pyrazolo[1,5-a][1,3]diazepin-6-yl]-6,7-dihydro-5H-pyrrolo[1,2-b][1,2,4]triazole-2-carboxamide]
RIP1 Ki
  Ki: 24 nM

## Cc1cc2n(n1)CC[C@H](NC(=O)c1nc3n(n1)[C@H](c1ccccc1)C[C@@H]3F)C(=O)N2C (racemic) [Example #39, rac-(5S,7S)-7-fluoro-5-phenyl-N-[rac-(6S)-2,4-dimethyl-5-oxo-7,8-dihydro-6H-pyrazolo[1,5-a][1,3]diazepin-6-yl]-6,7-dihydro-5H-pyrrolo[1,2-b][1,2,4]triazole-2-carboxamide]
RIP1 Ki
  Ki: 27 nM

## Cc1cc2n(n1)CC[C@H](NC(=O)c1nc3n(n1)[C@@H](c1ccccc1)CC3(F)F)C(=O)N2C (racemic) [Example #41, rac-(5R)-7,7-difluoro-5-phenyl-N-[rac-(6S)-2,4-dimethyl-5-oxo-7,8-dihydro-6H-pyrazolo[1,5-a][1,3]diazepin-6-yl]-5,6-dihydropyrrolo[1,2-b][1,2,4]triazole-2-carboxamide]
RIP1 Ki
  Ki: 35 nM

## CN1C(=O)[C@@H](NC(=O)c2nc3n(n2)[C@@H](c2ccccc2)CC3(F)F)COc2ccccc21 (racemic) [Example #42, rac-(5R)-7,7-difluoro-5-phenyl-N-[rac-(3S)-5-methyl-4-oxo-2,3-dihydro-1,5-benzoxazepin-3-yl]-5,6-dihydropyrrolo[1,2-b][1,2,4]triazole-2-carboxamide]
RIP1 Ki
  Ki: 5 nM

## CN1C(=O)[C@@H](NC(=O)c2nc3n(n2)[C@@H](c2ccccc2)CC3(F)F)CCn2nccc21 (racemic) [Example #43, rac-(5R)-7,7-difluoro-5-phenyl-N-[rac-(6S)-4-methyl-5-oxo-7,8-dihydro-6H-pyrazolo[1,5-a][1,3]diazepin-6-yl]-5,6-dihydropyrrolo[1,2-b][1,2,4]triazole-2-carboxamide]
RIP1 Ki
  Ki: 28 nM

## CN1C(=O)[C@@H](NC(=O)c2nc3n(n2)CC[C@H]3c2ccccc2F)CCn2nccc21 (single isomer, unassigned) [Example #7]
read-out: RIP1 Ki
  Ki: 22 nM

## Cc1cc2n(n1)CC[C@H](NC(=O)c1nc3n(n1)CC[C@H]3c1ccccc1F)C(=O)N2C (single isomer, unassigned) [Example #8]
read-out: RIP1 Ki
  Ki: 18 nM

## COc1cc2c(cn1)N(C)C(=O)[C@@H](NC(=O)c1nc3n(n1)[C@H](c1ccccc1F)CC3)CC2 (single isomer, unassigned) [Example #11]
read-out: RIP1 Ki
  Ki: 11 nM

## O=C(N[C@H]1CCc2ncccc2NC1=O)c1nc2n(n1)[C@@H](c1ccccc1)CC2 (single isomer, unassigned) [Example #13]
read-out: RIP1 Ki
  Ki: 41 nM

## O=C(N[C@H]1CCc2ncccc2NC1=O)c1nc2n(n1)[C@H](c1ccccc1F)CC2 (single isomer, unassigned) [Example #14]
read-out: RIP1 Ki
  Ki: 19 nM

## CN1C(=O)[C@@H](NC(=O)c2nc3n(n2)CC[C@H]3c2ccccc2F)CCc2ncccc21 (single isomer, unassigned) [Example #15]
read-out: RIP1 Ki
  Ki: 42 nM

## CN1C(=O)[C@@H](NC(=O)c2nc3n(n2)[C@@H](c2ccccc2F)CC3)CCc2ncccc21 (single isomer, unassigned) [Example #16]
read-out: RIP1 Ki
  Ki: 29 nM

## CN1C(=O)[C@@H](NC(=O)c2nc3n(n2)CC[C@H]3c2ccccc2)CCc2ncccc21 (single isomer, unassigned) [Example #17]
read-out: RIP1 Ki
  Ki: 37 nM

## CN1C(=O)[C@@H](NC(=O)c2nc3n(n2)[C@H](c2ccccc2)CC3)CCc2ncccc21 (single isomer, unassigned) [Example #18]
read-out: RIP1 Ki
  Ki: 44 nM

## CN1C(=O)[C@@H](NC(=O)c2ncn(Cc3ccccc3)n2)CCc2nn(C)cc21 (single isomer, unassigned) [Example #20]
read-out: RIP1 Ki
  Ki: 46 nM

## CN1C(=O)[C@@H](NC(=O)c2ncn(Cc3ccccc3F)n2)CCc2nn(C)cc21 (single isomer, unassigned) [Example #21]
read-out: RIP1 Ki
  Ki: 26 nM

## CN1C(=O)[C@@H](NC(=O)c2ncn(Cc3ccccc3)n2)CCc2c1cnn2C (single isomer, unassigned) [Example #22]
read-out: RIP1 Ki
  Ki: 14 nM

## CN1C(=O)[C@@H](NC(=O)c2ncn(Cc3ccccc3F)n2)CCc2c1cnn2C (single isomer, unassigned) [Example #23]
read-out: RIP1 Ki
  Ki: 13 nM

## CN1C(=O)[C@@H](NC(=O)c2nc3n(n2)[C@H](c2ccccc2)C[C@@H]3F)COc2ccccc21 (single isomer, unassigned) [Example #30]
RIP1 Ki
  Ki: 18 nM

## O=C(N[C@H]1CCc2cc(F)cc(F)c2NC1=O)c1nc2n(n1)[C@@H](c1ccccc1)C[C@H]2F (single isomer, unassigned) [Example #33]
read-out: RIP1 Ki
  Ki: 13 nM

## O=C(N[C@H]1CCc2cc(F)cc(F)c2NC1=O)c1nc2n(n1)[C@H](c1ccccc1)C[C@H]2F (single isomer, unassigned) [Example #34]
read-out: RIP1 Ki
  Ki: 31 nM

## CN1C(=O)[C@@H](NC(=O)c2nc3n(n2)[C@H](c2ccccc2)C[C@H]3F)COc2ccccc21 (single isomer, unassigned) [Example #35]
read-out: RIP1 Ki
  Ki: 15 nM

## CN1C(=O)[C@@H](NC(=O)c2nc3n(n2)[C@@H](c2ccccc2)C[C@@H]3F)CCn2nccc21 (single isomer, unassigned) [Example #36]
read-out: RIP1 Ki
  Ki: 32 nM

## Cc1cc2n(n1)CC[C@H](NC(=O)c1nc3n(n1)[C@@H](c1ccccc1)C[C@@H]3F)C(=O)N2C (single isomer, unassigned) [Example #37]
read-out: RIP1 Ki
  Ki: 30 nM

## CN1C(=O)[C@@H](NC(=O)c2nc3n(n2)[C@H](c2ccccc2)C[C@@H]3F)COc2ccccc21 (single isomer, unassigned) [Example #40]
RIP1 Ki
  Ki: 5 nM

## CCC(F)(F)[C@@H]1CCc2nc(C(=O)N[C@H]3COc4ccccc4N(C)C3=O)nn21 (single isomer, unassigned) [Example #44]
read-out: RIP1 Ki
  Ki: 7 nM

## CN1C(=O)[C@@H](NC(=O)c2cc3c(cn2)cnn3CC(C)(F)F)COc2ccccc21 [Example #2, 1-(2,2-difluoropropyl)-N-[(3S)-5-methyl-4-oxo-2,3-dihydro-1,5-benzoxazepin-3-yl]pyrazolo[4,3-c]pyridine-6-carboxamide]
read-out: RIP1 Ki
  Ki: 29 nM
